# Measured values taken from patent US20150157642A1, “COSMETIC METHOD FOR CHANGING THE APPEARANCE OF EYES” (priority 2011, published 2015).
# System: eyelids
# Assay: topical application to the eyelids, eyelid retraction / eye-widening effect
# Assay type: in vivo
# Conditions: topically applied, alone or in combination
# Source text: Topical treatments to which the current application is directed include ointments, creams, and solutions that contain one or more of the compounds travoprost, unoprostone, latanoprost, and bimatoprost, alone or in combination, and/or one or more chemically-related compounds and may also include pure forms of various additional types of prostaglandin, synthetic prostaglandin, and synthetic prostaglandin anologues. These ointments and solutions are topically applied to eyelids in order to treat ptosis and/or to improve facial appearance. The ointments and solution may include, in addition to the above-mentioned active ingredients, stabilizers, buffering compounds, salts, carriers, viscosity enhancers, colorants, emollients, emulsifiers, bactericidal and germicidal agents, preservatives, and other ingredients that improve shelf life, application, consistency, and compatibility with topical application, among other things. […] Either pure prostaglandin, synthetic prostaglandin, or synthetic prostaglandin analogues may be rubbed into the eyelid tissues or a relatively concentrated solution of prostaglandin in any of various organic solvents, including ethanol, or ethanol-water mixtures, can be applied to produce the effect. Prostaglandin, synthetic prostaglandin, or synthetic prostaglandin analogs may be additionally included in various eye shadows and other cosmetic products that are routinely applied to eyelids in order to produce the eye-widening cosmetic effect, as well as in many different mixtures, suspensions, solutions, powders, ointments, creams, and other substances.
row,Structure (SMILES),eyelid retraction (ameliorating ptosis and/or improving facial appearance)
1,"CCNC(=O)CCCC=CCC1C(O)CC(O)C1C=CC(O)CCc1ccccc1 (stereo not shown) [bimatoprost, 7-[3,5-dihydroxy-2-(3-hydroxy-5-phenyl-pent-1-enyl)-cyclopentyl]-N-ethyl-hept-5-enamide]",cause the eyelids to retract more completely
2,"CC(C)OC(=O)CCC/C=C\C[C@@H]1[C@@H](CC[C@@H](O)CCc2ccccc2)[C@H](O)C[C@@H]1O [latanoprost, isopropyl (Z)-7-[(1R,2R,3R,5S)-3,5-dihydroxy-2-[(3R)3-hydroxy-5-phenylpentyl]-cyclopentyl]hept-5-enoate]",cause the eyelids to retract more completely
3,"CC(C)OC(=O)CCCC=CCC1C(O)CC(O)C1C=CC(O)COc1cccc(C(F)(F)F)c1 (stereo not shown) [travoprost, propan-2-yl 7-[3,5-dihydroxy-2-[3-hydroxy-4-[3-(trifluoromethyl)phenoxy]-but-1-enyl]-cyclopentyl]hept-5-enoate]",cause the eyelids to retract more completely
4,"CCCCCCCC(=O)CC[C@@H]1[C@@H](C/C=C\CCCC(=O)OC(C)C)[C@@H](O)C[C@H]1O [unoprostone, isopropyl (Z)-7-[(1R,2R,3R,5S)-3,5-dihydroxy-2-(3-oxodecyl)cyclopentyl]hept-5-enoic acid]",cause the eyelids to retract more completely
